Reference: publication PMC4415909 (Journal of Medicinal Chemistry, 2015)
Where a name gives a salt, the structure may show the parent alone. One block for each molecule: values may come before it.

Key:
[1] = tested on: retinal pigment epithelium (RPE) layer of the eye; conditions: cited from earlier work
BACE1 = BACE1 (Homo sapiens, UniProt P56817); assay type: biochemical
[2] = Human hepatocyte clearance; assay type: in vitro ADME; conditions: hepatocytes
[3] = tested on: major CYP-P450s (1A2, 2C9, 2D6, 3A4, 2C8, 2C19); assay: Multipoint cocktail DDI IC50 assay, major CYP-P450s; assay type: in vitro ADME; conditions: human, pooled human liver microsomes (HL-MIX-102), pH 7.4
hERG = hERG (Homo sapiens, UniProt Q12809); assay: hERG patch clamp assay in hERG-expressing CHO cells; assay type: cell-based; conditions: pH 7.35
Sequence of hERG (Q12809 whole entry): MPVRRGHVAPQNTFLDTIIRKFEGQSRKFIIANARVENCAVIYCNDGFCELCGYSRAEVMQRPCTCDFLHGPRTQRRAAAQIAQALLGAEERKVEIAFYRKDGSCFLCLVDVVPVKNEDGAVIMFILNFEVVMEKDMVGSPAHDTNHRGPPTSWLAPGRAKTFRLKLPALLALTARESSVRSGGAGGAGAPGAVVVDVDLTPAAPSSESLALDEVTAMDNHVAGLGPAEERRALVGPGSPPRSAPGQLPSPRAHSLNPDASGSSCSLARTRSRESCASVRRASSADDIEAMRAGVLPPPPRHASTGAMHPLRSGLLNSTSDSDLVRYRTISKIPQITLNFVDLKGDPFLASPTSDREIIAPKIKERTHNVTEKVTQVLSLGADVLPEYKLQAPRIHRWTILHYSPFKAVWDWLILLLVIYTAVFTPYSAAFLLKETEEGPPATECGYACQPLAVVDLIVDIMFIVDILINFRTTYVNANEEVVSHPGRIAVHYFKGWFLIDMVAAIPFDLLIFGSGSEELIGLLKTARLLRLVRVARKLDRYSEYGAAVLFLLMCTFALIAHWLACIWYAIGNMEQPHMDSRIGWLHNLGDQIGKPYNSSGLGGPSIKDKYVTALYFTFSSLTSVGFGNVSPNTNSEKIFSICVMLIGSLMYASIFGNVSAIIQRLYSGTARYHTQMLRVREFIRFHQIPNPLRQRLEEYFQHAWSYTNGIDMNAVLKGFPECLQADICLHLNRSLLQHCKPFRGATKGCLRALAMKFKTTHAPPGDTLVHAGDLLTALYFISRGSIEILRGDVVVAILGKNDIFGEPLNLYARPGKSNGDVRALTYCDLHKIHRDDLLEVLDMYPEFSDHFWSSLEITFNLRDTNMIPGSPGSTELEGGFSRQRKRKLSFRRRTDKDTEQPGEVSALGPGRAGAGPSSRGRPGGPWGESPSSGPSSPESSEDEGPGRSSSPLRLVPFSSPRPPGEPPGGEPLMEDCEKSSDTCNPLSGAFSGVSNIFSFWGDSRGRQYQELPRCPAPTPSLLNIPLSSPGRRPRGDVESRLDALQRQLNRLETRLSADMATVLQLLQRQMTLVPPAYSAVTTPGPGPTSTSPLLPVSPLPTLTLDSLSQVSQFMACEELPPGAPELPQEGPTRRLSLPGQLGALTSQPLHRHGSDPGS

[4] = cited from earlier work

Sequence of BACE1 (P56817 46-457 limits assumed): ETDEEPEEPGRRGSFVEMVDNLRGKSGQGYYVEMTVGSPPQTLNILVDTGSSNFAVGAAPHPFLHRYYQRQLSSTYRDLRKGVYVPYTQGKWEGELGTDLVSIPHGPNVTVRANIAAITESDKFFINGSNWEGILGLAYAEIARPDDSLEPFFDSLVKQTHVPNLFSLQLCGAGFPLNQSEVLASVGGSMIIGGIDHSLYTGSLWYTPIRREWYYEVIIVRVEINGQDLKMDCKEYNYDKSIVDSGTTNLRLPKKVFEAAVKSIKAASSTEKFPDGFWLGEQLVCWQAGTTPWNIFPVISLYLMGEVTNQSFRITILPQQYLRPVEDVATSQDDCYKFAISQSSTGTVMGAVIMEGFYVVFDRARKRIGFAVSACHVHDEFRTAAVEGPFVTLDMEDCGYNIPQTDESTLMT

Structure (SMILES): CC1(C#Cc2cnc3c(c2)[C@]2(COC(N)=N2)c2cc(-c4cccnc4F)ccc2O3)COC1 [AMG-8718]
- finding in rat safety studies [1]: accumulation of autofluorescent material and degeneration of the retinal pigment epithelium (RPE) layer of the eye

Structure (SMILES): Cc1coc([C@H]2C[C@H]3[C@@H](C)SC(N)=N[C@@]3(c3ccc(F)cc3F)CO2)n1 [Compound 9, (4R,4aR,6R,8aS)-8a-(2,4-Difluorophenyl)-4-methyl-6-(4-methyloxazol-2-yl)-4,4a,5,6,8,8a-hexahydropyrano[3,4-d][1,3]thiazin-2-amine]
- IC50 [3]: > 30 µM

Structure (SMILES): Cc1coc([C@H]2C[C@H]3[C@@H](CF)SC(N)=N[C@@]3(c3ccc(F)cc3F)CO2)n1 [Compound 12, (4S,4aR,6R,8aS)-8a-(2,4-Difluorophenyl)-4-(fluoromethyl)-6-(4-methyloxazol-2-yl)-4,4a,5,6,8,8a-hexahydropyrano[3,4-d][1,3]thiazin-2-amine]
- IC50 [3]: > 30 µM

Structure (SMILES): Cc1cc([C@H]2C[C@H]3[C@@H](CF)SC(N)=N[C@@]3(c3ccc(F)cc3F)CO2)on1 [Compound 13, (4S,4aR,6R,8aS)-8a-(2,4-Difluorophenyl)-4-(fluoromethyl)-6-(3-methyl-1,2-oxazol-5-yl)-4,4a,5,6,8,8a-hexahydropyrano[3,4-d][1,3]thiazin-2-amine]
- improvement of hERG margin compared to isoxazole 10 (hERG): greater than 7 fold
- IC50 [3]: > 30 µM

Structure (SMILES): Cn1cc([C@H]2C[C@H]3[C@@H](CF)SC(N)=N[C@@]3(c3ccc(F)cc3F)CO2)cn1 [Compound 14, (4S,4aR,6R,8aS)-8a-(2,4-Difluorophenyl)-4-(fluoromethyl)-6-(1-methyl-1H-pyrazol-4-yl)-4,4a,5,6,8,8a-hexahydropyrano[3,4-d][1,3]thiazin-2-amine, Hydrochloride Salt]
- IC50 [3]: > 30 µM

Structure (SMILES): C[C@@]1(c2cc(-c3cncnc3)c(F)cc2F)CCSC(N)=N1 [LY2811376]
- finding in rat safety studies [1]: accumulation of autofluorescent material and degeneration of the retinal pigment epithelium (RPE) layer of the eye

Structure (SMILES): NC1=N[C@@]2(c3cc(NC(=O)c4ccc(F)cn4)ccc3F)COC[C@H]2CS1 [LY2886721]
- finding that terminated phase II study [4]: abnormal liver biochemical tests

Other lines, results leading:

- improvement of BACE1 potency over 1 (BACE1): ~2 fold
- LipE (BACE1; LipE = BACE1 CFA pIC50 – log D): 5.2
Structure (SMILES): NC1=N[C@@]2(c3ccc(F)cc3F)CO[C@@H](c3ncco3)C[C@H]2CS1 [Compound 2, (4aR,6R,8aS)-8a-(2,4-Difluorophenyl)-6-(oxazol-2-yl)-4,4a,5,6,8,8a-hexahydropyrano[3,4-d][1,3]thiazin-2-amine]

- improvement of BACE1 potency over compound 2 (BACE1): approximately 10 fold
Structure (SMILES): Cc1coc([C@H]2C[C@H]3CSC(N)=N[C@@]3(c3ccc(F)cc3F)CO2)n1 [Compound 3, (4aR,6R,8aS)-8a-(2,4-Difluorophenyl)-6-(4-methyloxazol-2-yl)-4,4a,5,6,8,8a-hexahydropyrano[3,4-d][1,3]thiazin-2-amine]

- improvement of BACE1 potency over compound 2 (BACE1): approximately 10 fold
Structure (SMILES): Cc1cc([C@H]2C[C@H]3CSC(N)=N[C@@]3(c3ccc(F)cc3F)CO2)on1 [Compound 4, (4aR, 6R, 8aS)-8a-(2,4-Difluorophenyl)-6-(3-methyl-1,2-oxazo1-5-yl)-4,4-a,5,6,8,8a-hexahydropyrano [3,4-][1,3]thiazin-2-amine]

- hepatocyte CLint [2]: < 6 µL/min/1e6 cells
- improvement of BACE1 potency over compound 2 (BACE1): approximately 10 fold
Structure (SMILES): Cn1cc([C@H]2C[C@H]3CSC(N)=N[C@@]3(c3ccc(F)cc3F)CO2)cn1 [Compound 5, (4aR,6R,8aS)-8a-(2,4-Difluorophenyl)-6-(1-methyl-1H-pyrazol-4-yl)-4,4a,5,6,8,8a-hexahydropyrano[3,4-d][1,3]thiazin-2-amine]
